Two molecules from patent US9376449B2, “Indole carboxamide derivative” (Astellas Pharma Inc., priority 2012, dated 2016) can be followed below.

As usually defined, the melting point is the temperature of the solid-liquid transition.

For series [1], the system named is isolated urethra. The experiment in a line: Test confirming that urethra contractile action by ramelteon is through MT1 and/or MT2 receptor (Luzindole). Further details: species or system rat. As to conditions: ramelteon 1 μM; solvent added instead of Luzindole; first contraction by ramelteon as 100%. Here is the method:
(2) Test for Confirming that Urethra Contractile Action is Action Through MT1 and/or MT2 Receptor
The urethra was isolated from an SD female rat having a body weight of 100 to 500 g. The isolated urethra was incised longitudinally to give a rectangular strip specimen having a width of about 3 mm, which was suspended in the muscle parallel to the circular to 10 mL of a tissue bath filled with a Krebs-Henseleit solution (pH 7.4). […] The resting tension was set to 0.5 g to record the isometric contraction. After the resting tension was stabilized, contraction was elicited by the addition of 10 μM phenylephrine. After washing and stabilizing, the test compound (ramelteon) at 1 μM was added to measure a contractile response. After washing and stabilizing, a solvent or Luzindole (purchased from Wako Pure Chemical Industries, Ltd.) (0.1 μM, 1 μM, or 10 μM) was added to the same specimen, and after 20 minutes, ramelteon at 1 μM was added again thereto to measure a contractile reaction. When the first contraction by ramelteon at 1 μM was taken as 100%, the second contractile rate by ramelteon was measured.

`CNC(=O)c1[nH]c2ccc(OC)cc2c1CCNC(=O)C(F)F` [Ex 2, 3-{2-[(difluoroacetyl)amino]ethyl}-5-methoxy-N-methyl-1H-indole-2-carboxamide] returned a melting point of 212 to 215 °C.

Regarding `CCC(=O)NCC[C@@H]1CCc2ccc3c(c21)CCO3` [Ramelteon, reference compound], the “Second contractile rate by ramelteon (%)” value in series [1] was 98 ± 10%.
